This test concerns the target T1, human serum albumin (HSA) (Homo sapiens, UniProt P02768).
T1 construct: gene ALB; fatty-acid-free HSA (Sigma-Aldrich A3782)
The test can be described thus: intrinsic fluorescence quenching (modified Stern-Volmer, binding constant Kb, […] K), supported by UV-vis, time-resolved fluorescence and CD. As to conditions: read-out: Kb (L mol^-1) (converted).

T1 sequence (P02768 25-609): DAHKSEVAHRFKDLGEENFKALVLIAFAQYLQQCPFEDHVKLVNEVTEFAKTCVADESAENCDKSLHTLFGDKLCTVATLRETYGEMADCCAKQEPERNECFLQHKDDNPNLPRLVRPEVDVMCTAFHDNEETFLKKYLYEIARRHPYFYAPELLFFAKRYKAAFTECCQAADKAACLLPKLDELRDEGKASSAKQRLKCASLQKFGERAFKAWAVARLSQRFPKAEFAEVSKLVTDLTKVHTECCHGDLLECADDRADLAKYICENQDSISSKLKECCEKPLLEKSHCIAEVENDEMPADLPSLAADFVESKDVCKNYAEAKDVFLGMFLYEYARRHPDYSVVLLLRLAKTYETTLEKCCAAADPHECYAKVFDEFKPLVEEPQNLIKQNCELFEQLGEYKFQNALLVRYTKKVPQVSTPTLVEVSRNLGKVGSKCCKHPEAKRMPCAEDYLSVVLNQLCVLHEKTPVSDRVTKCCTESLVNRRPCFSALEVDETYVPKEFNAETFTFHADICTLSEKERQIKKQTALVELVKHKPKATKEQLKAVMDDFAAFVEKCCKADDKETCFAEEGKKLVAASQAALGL

Turning to `O=S(=O)(CCCCl)CN1CCC2(CC1)OOC1(CCCC1)OO2` [TO1], the Kd was 16 µM.
The figure for `CCS(=O)(=O)CN1CCC2(CC1)OOC1(CCCCC1)OO2` [TO2] is 93.2 µM.

The values above are taken from article PMC7114135, “Interaction between the Antimalarial Drug Dispiro-Tetraoxanes and Human Serum Albumin: A Combined Study with Spectroscopic Methods and Computational Studies” (ACS Omega, 2020).
